Measurements as given in patent publication US4613355A, “Antibiotic having herbicidal activity” (Satoshi Omura, priority 1983, dated 1986).
Counter-ions that a name gives are not always drawn.

What was measured:
Assay type in all cases: in vivo
[1] = test system: Digitaria adscendens; experiment: Foliage treatment of seedlings in pots (Example 7); conditions: 10 days after foliage treatment, 1000 liter per hectare
Protocol: Upland soil was put in a pot of 10 cm diameter and the seeds of Digitaria adscendens were sown in the soil at a depth of 1 cm from the surface. When the height of the seedlings was about 10 cm, aqueous solutions of the test compounds as shown in the following Table were uniformly sprayed on the plants at a rate of 1.2 ml per plant, equivalent to 1000 liter per hectare. 10 days after the foliage treatment, damage to plants was visually assessed on a scale of from 0 to 10, where 0 indicates no effect and 10 indicates complete kill.

[2] = test system: Rumex obtusifolius; experiment: Foliage treatment with different salts (Example 11); parameters: key: 0 indicates no effect; 5 indicates complete kill; conditions: Rumex obtusifolius (Plant No. 14), 1000 liter per hectare
Protocol: Aqueous solutions containing different salts of Phosalacine at different concentrations as active ingredients and 0.1% of octylphenylpolyoxy ethanol as surfactant were applied at a rate of 1000 liter per hectare to Rumex obtusifolius (Plant No. 14) at a certain stage of growth. 21 days after foliage treatment, damage to the plant was visually assessed on a scale of 0 to 5 as hereinbefore described. The salts used were prepared by the methods described in the reference mentioned above.

[3] = test system: Killifishes (Medaka); experiment: Acute toxicity to fish, survival ratio (Example 13); conditions: killifish
Protocol: Killifishes (Japanese name, Medaka), were obtained from a market and maintained in a water bath at 25±2° C. for a week. Then the fishes (each group consisting of 10 fishes) were placed in water baths containing the test compounds at given concentrations as shown in the following Table. 24 and 48 hours after this, the survival ratio (%) of each group was visually counted to assess the acute toxity.

[4] = test system: Eichhornia crassipes; experiment: Activity against aquatic plants (Example 12); conditions: 0.1%, 1500 liter per hectare, 4 weeks after the treatment
Protocol: An aqueous solution containing 0.1% of Phosalacine (monosodium salt) and 0.1% of octylphenylpolyoxyethanol was applied to Eichhornia crassipes at a certain stage of growth, at a rate of 1500 liter per hectare as a foliage treatment. Damage to the plants was assessed visually 4 weeks after the treatment.

Q: `CC(C)C[C@H](NC(=O)[C@H](C)NC(=O)[C@@H](N)CCP(C)(=O)O)C(=O)O` [Phosalacine (Na salt)] was tested. Which “damage to plants, scale 0 to 10” value ([1]; Concentration 0.01 ppm) did it give?
A: The value was 3 (30).

Q: What about the “damage to plants, scale 0 to 10” value ([1]; Concentration 0.03 ppm) of the same molecule?
A: The value was 10 (100).

Q: And the “damage to plants, scale 0 to 10” value ([1]; Concentration 0.1 ppm)?
A: Its value is 10 (100).

Q: And the “Damage to plants after 21 days, scale 0 to 5” value ([2]; 0.05%)?
A: Its value is 3.

Q: What about the “Damage to plants after 21 days, scale 0 to 5” value ([2]; 0.1%) of the same molecule?
A: The value was 5.

Q: And the “Survival ratio (%)” value ([3]; 20 ppm, 24 hours)?
A: The value was 100%.

Q: What about the “Survival ratio (%)” value ([3]; 20 ppm, 48 hours) of the same molecule?
A: Its value is 100%.

Q: And the “Survival ratio (%)” value ([3]; 100 ppm, 24 hours)?
A: The value was 100%.

Q: And the “Survival ratio (%)” value ([3]; 100 ppm, 48 hours)?
A: The value was 50%.

Q: And the “Survival ratio (%)” value ([3]; 500 ppm, 24 hours)?
A: Its value is 0%.

Q: And the “Survival ratio (%)” value ([3]; 500 ppm, 48 hours)?
A: Its value is 0%.

Q: And the “Damage to the plants, assessed visually” value [4]?
A: The value was “completely killed”.
